{"source": "ChEMBL document CHEMBL4020831", "about": "“Discovery of GDC-0853: A Potent, Selective, and Noncovalent Bruton's Tyrosine Kinase Inhibitor in Early Clinical Development” (J Med Chem, 2018)", "key": {"[1]": {"system": "Rattus norvegicus", "assay": "Time at which plasma concentration stays above in vitro IC50 for BTK autophosphorylation at Y223 in rat whole blood in Lewis rat collagen-induced arthritis modelt at 0.125 to 2 mg/kg, po bid measured during 12 hrs dosing"}, "[2]": {"biological_target": "Cytochrome P450 2D6 (Homo sapiens, UniProt P10635)", "sequence (P10635 whole entry)": "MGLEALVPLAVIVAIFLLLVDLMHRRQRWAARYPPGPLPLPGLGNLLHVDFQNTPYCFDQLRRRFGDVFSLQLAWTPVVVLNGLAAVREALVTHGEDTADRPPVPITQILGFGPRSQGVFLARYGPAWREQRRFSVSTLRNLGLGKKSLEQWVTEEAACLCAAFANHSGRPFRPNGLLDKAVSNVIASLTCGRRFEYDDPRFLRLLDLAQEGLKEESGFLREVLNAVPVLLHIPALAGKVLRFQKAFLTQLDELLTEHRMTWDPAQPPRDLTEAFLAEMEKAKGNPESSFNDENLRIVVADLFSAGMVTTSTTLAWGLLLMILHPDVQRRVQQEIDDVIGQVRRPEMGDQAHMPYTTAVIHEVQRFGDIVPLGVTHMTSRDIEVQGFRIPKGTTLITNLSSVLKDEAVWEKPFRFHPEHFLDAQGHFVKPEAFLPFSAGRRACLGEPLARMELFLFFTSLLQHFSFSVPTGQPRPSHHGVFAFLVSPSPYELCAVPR", "assay": "Inhibition of CYP2D6 (unknown origin)", "format": "ADME"}, "[3]": {"system": "Salmonella typhimurium", "assay": "Genotoxicity in Salmonella typhimurium TA100 after 48 to 72 hrs in absence of liver S9 fraction by Ames test", "format": "toxicity", "details": "salmonella enterica subsp. enterica serovar typhimurium"}, "[4]": {"system": "Salmonella typhimurium", "assay": "Genotoxicity in Salmonella typhimurium TA100 after 48 to 72 hrs in presence of liver S9 fraction by Ames test", "format": "toxicity", "details": "salmonella enterica subsp. enterica serovar typhimurium"}, "[5]": {"assay": "Oral bioavailability in rat at 1 mg/kg administered as single dose via cassette dosing", "format": "ADME, organism-based", "details": "in vivo"}, "[6]": {"biological_target": "ERBB2 (Homo sapiens, UniProt P04626)", "sequence (P04626 whole entry)": "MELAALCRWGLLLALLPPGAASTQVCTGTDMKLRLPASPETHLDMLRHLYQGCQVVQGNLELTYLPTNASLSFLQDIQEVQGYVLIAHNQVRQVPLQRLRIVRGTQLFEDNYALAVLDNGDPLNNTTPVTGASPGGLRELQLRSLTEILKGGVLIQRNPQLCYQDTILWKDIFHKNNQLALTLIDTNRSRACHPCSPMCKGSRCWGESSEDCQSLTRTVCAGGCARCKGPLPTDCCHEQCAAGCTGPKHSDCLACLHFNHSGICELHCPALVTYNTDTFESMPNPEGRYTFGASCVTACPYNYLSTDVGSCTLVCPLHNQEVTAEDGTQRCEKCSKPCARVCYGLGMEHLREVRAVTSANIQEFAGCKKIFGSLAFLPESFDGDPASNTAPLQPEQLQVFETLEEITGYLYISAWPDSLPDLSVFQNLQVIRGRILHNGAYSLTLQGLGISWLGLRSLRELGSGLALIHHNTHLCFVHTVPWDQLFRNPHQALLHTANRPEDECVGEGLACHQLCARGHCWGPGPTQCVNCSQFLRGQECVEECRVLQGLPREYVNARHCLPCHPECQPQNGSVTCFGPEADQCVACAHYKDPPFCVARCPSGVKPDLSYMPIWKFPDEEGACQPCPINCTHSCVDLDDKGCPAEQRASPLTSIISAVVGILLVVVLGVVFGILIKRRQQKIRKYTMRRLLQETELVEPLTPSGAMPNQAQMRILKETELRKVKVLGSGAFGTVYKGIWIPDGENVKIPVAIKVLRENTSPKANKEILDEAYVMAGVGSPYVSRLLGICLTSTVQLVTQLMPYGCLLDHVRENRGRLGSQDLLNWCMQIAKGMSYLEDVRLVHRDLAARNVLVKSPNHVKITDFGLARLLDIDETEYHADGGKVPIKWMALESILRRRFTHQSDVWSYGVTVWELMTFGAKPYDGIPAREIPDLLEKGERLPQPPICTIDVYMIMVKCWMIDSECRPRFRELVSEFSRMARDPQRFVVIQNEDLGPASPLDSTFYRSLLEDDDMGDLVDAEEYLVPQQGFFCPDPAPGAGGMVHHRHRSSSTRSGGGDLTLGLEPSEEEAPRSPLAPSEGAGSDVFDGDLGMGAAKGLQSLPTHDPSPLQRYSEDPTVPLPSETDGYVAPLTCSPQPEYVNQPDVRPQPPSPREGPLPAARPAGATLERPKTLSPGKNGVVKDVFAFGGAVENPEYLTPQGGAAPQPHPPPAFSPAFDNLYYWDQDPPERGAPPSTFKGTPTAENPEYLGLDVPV", "assay": "Inhibition of recombinant human cytoplasmic His-tagged ERBB2 expressed in baculovirus at 1 uM by Z'-LYTE assay"}, "[7]": {"assay": "Aqueous solubility of the compound", "format": "physicochemical", "details": "buffer"}, "[8]": {"system": "Salmonella typhimurium", "assay": "Genotoxicity in Salmonella typhimurium TA1535 after 48 to 72 hrs in presence of liver S9 fraction by Ames test", "format": "toxicity", "details": "salmonella enterica subsp. enterica serovar typhimurium"}, "[9]": {"system": "Rattus norvegicus", "assay": "Antiinflammatory activity in po dosed Lewis rat collagen-induced arthritis model assessed as reduction in ankle thickness administered qd for 16 days", "format": "functional, organism-based"}, "[10]": {"assay": "Clearance in human hepatocytes at 1 uM incubated up to 60 mins by LC-MS/MS method", "format": "ADME, cell-based, Hepatocyte"}, "[11]": {"system": "Rattus norvegicus", "assay": "Antiinflammatory activity in po dosed Lewis rat collagen-induced arthritis model assessed as reduction in ankle thickness administered bid for 16 days", "format": "functional, organism-based"}, "[12]": {"assay": "Aqueous solubility of the compound in 0.1 N HCl", "format": "physicochemical", "details": "buffer"}, "[13]": {"system": "Escherichia coli", "assay": "Genotoxicity in Escherichia coli WP2 harboring uvrA deletion mutant after 48 to 72 hrs in absence of liver S9 fraction by Ames test", "format": "toxicity"}, "[14]": {"system": "Rattus norvegicus", "assay": "Antiinflammatory activity in Lewis rat collagen-induced arthritis model assessed as reduction in ankle diameter AUC at 0.125 mg/kg, po administered bid for 16 days relative to control", "format": "functional", "details": "384 h"}, "[15]": {"biological_target": "T1, JAK3 (Homo sapiens, UniProt P52333)", "T1 sequence (P52333 whole entry)": "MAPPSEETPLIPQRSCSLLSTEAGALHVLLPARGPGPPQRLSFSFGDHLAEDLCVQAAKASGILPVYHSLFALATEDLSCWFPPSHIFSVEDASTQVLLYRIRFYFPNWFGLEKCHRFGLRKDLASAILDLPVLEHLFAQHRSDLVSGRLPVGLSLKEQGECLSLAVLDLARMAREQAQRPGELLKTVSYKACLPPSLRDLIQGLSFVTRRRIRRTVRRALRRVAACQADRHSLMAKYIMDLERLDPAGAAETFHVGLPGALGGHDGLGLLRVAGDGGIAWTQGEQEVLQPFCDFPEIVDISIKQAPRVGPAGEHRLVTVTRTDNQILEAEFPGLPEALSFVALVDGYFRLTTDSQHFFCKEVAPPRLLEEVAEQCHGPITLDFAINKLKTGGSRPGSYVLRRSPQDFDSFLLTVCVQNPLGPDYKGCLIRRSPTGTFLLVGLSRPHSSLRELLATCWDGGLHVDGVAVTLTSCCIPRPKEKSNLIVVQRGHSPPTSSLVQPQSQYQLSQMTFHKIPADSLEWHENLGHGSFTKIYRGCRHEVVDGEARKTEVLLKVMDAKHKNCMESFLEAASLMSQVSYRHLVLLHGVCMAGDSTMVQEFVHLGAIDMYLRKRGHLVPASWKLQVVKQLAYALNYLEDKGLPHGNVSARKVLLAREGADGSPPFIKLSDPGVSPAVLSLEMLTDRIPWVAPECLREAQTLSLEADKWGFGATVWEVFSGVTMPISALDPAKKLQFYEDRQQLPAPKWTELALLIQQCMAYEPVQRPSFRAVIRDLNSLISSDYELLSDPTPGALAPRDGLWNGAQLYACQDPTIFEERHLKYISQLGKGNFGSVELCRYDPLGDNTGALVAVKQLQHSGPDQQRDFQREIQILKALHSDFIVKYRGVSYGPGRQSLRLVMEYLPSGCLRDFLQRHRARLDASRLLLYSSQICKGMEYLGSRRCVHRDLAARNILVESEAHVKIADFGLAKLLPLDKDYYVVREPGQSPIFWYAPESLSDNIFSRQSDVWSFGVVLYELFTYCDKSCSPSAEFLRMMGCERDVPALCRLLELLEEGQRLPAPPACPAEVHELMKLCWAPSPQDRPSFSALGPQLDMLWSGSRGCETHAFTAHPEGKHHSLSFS", "assay": "Inhibition of recombinant human catalytic GST-tagged JAK3 expressed in baculovirus at 1 uM by Z'-LYTE assay"}, "[16]": {"biological_target": "Cytochrome P450 3A4 (Homo sapiens, UniProt P08684)", "sequence (P08684 whole entry)": "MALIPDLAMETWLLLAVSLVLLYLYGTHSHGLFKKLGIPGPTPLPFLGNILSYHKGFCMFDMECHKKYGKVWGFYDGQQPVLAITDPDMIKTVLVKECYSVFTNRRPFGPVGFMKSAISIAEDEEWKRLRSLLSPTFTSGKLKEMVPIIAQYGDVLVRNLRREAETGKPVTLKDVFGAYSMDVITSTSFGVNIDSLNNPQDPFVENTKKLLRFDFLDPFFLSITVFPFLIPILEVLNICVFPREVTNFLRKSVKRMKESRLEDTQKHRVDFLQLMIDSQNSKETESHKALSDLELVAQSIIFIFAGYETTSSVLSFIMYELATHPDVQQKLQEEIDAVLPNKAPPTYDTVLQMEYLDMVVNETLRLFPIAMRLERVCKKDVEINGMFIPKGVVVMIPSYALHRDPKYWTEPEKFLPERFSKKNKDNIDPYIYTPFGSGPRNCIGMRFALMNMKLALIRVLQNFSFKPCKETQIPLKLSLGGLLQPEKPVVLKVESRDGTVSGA", "assay": "Inhibition of CYP3A4 (unknown origin)", "format": "ADME"}, "[17]": {"system": "Rattus norvegicus", "assay": "Time at which plasma concentration stays above in vitro IC70 for BTK autophosphorylation at Y223 in rat whole blood in Lewis rat collagen-induced arthritis model at 0.125 to 2 mg/kg, po bid measured during 12 hrs dosing"}, "[18]": {"system": "Rattus norvegicus", "assay": "Antiinflammatory activity in Lewis rat collagen-induced arthritis model assessed as reduction in ankle diameter AUC at 1 mg/kg, po administered qd for 16 days relative to control", "format": "functional", "details": "384 h"}, "[19]": {"assay": "Plasma clearance in rat at 0.2 mg/kg, iv or 1 mg/kg, po administered as single dose via cassette dosing", "format": "ADME, organism-based"}, "[20]": {"assay": "Volume of distribution in rat at 0.2 mg/kg, iv or 1 mg/kg, po administered as single dose via cassette dosing", "format": "ADME, organism-based", "details": "in vivo"}, "[21]": {"system": "Rattus norvegicus", "assay": "Antiinflammatory activity in Lewis rat collagen-induced arthritis model assessed as reduction in ankle cartilage damage at 0.06 to 16 mg/kg, po administered qd for 16 days", "format": "functional, organism-based"}, "[22]": {"system": "PBL", "assay": "Genotoxicity in human PBL assessed as induction of micronuclei at 500 ug/ml in absence of rat liver S9 fraction by cytochalasin B-block method", "format": "toxicity, cell-based"}, "[23]": {"system": "Salmonella typhimurium", "assay": "Genotoxicity in Salmonella typhimurium TA1535 after 48 to 72 hrs in absence of liver S9 fraction by Ames test", "format": "toxicity", "details": "salmonella enterica subsp. enterica serovar typhimurium"}, "[24]": {"system": "Salmonella typhimurium", "assay": "Genotoxicity in Salmonella typhimurium TA97a after 48 to 72 hrs in presence of liver S9 fraction by Ames test", "format": "toxicity", "details": "salmonella enterica subsp. enterica serovar typhimurium"}, "[25]": {"system": "Homo sapiens", "assay": "Toxicity in human at 250 mg administered bid for 14 days", "details": "in vivo, 336 h"}, "[26]": {"system": "Rattus norvegicus", "assay": "Antiinflammatory activity in Lewis rat collagen-induced arthritis model assessed as reduction in bone resorption at 0.125 to 2 mg/kg, po administered bid for 16 days", "format": "functional, organism-based"}, "[27]": {"system": "Escherichia coli", "assay": "Genotoxicity in Escherichia coli WP2 harboring uvrA deletion mutant after 48 to 72 hrs in presence of liver S9 fraction by Ames test", "format": "toxicity"}, "[28]": {"biological_target": "Nav1.5 (Homo sapiens, UniProt Q14524)", "sequence (Q14524 whole entry)": "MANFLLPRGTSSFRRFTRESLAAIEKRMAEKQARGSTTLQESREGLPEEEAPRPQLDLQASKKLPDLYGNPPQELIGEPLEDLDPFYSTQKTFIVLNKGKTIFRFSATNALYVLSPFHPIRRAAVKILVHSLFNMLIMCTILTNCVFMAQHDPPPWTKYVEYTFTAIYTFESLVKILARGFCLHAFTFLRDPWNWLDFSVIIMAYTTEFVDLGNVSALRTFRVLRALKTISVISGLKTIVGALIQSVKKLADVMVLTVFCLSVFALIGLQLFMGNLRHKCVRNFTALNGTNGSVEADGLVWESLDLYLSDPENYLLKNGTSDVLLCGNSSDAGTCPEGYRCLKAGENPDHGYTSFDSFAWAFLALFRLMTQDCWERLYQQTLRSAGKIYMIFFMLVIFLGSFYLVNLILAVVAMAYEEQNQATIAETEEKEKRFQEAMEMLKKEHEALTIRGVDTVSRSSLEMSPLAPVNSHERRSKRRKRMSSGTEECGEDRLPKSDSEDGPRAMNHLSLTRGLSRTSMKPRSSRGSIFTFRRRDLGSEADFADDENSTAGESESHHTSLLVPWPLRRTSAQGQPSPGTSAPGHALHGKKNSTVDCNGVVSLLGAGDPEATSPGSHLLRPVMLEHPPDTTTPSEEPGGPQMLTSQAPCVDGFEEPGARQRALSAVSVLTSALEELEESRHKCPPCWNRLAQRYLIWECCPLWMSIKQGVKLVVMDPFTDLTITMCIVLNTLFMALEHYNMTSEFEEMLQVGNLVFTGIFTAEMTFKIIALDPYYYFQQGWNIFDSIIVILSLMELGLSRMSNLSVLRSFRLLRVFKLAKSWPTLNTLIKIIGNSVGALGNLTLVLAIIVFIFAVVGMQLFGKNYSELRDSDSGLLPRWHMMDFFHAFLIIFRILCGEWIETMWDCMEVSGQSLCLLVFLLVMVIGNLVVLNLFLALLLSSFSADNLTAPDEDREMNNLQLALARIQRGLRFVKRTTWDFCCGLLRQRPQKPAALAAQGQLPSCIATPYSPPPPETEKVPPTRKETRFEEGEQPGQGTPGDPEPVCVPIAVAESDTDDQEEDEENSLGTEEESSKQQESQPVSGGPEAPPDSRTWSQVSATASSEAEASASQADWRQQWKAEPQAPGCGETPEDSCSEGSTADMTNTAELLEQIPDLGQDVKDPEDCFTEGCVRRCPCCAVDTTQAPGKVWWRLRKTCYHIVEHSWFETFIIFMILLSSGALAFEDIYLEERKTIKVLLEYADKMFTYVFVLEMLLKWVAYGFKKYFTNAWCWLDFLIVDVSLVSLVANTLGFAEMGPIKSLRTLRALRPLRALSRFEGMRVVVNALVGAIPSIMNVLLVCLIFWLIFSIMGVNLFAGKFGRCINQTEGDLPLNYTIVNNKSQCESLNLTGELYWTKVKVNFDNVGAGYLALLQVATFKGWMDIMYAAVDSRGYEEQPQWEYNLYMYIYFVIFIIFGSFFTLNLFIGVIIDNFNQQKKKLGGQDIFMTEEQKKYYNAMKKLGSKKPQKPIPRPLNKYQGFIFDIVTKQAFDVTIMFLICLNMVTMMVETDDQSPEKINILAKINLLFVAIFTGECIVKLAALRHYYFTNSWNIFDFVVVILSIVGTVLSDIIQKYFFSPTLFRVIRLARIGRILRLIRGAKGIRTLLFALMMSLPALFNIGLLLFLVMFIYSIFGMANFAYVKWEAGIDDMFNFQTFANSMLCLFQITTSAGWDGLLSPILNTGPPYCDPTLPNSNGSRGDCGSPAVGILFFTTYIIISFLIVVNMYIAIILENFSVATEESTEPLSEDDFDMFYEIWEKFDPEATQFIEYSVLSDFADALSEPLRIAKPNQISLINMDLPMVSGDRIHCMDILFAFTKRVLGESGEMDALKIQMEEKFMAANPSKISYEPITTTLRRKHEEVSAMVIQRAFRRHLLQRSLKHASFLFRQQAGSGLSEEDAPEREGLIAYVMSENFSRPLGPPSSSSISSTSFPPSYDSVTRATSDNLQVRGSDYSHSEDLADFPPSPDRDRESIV", "assay": "Inhibition of human Nav1.5 expressed in CHO cells at 1 uM incubated for 3 to 5 mins by Qpatch clamp assay", "format": "cell-based", "details": "CHO cells expressing human Nav1.5"}, "[29]": {"system": "Rattus norvegicus", "assay": "Antiinflammatory activity in Lewis rat collagen-induced arthritis model assessed as reduction in ankle diameter AUC at 2 mg/kg, po administered bid for 16 days relative to control", "format": "functional", "details": "384 h"}}, "note": "Activity calls are given as the source filed them. No cut-off for these calls is given here.", "data": [{"compound": "C[C@H]1CN(C2COC2)CCN1c1ccc(Nc2cc(-c3ccnc(N4CCn5c(cc6c5CC(C)(C)C6)C4=O)c3CO)cn(C)c2=O)nc1", "note": "[FENEBRUTINIB]", "values": [{"measurement": "Time", "setting": "[1]", "value": 6, "unit": "h"}, {"measurement": "IC50", "setting": "[2]", "value": "> 5", "unit": "µM"}, {"measurement": "Activity", "setting": "[3]", "value": "Non-Toxic"}, {"measurement": "Activity", "setting": "[4]", "value": "Non-Toxic"}, {"measurement": "bioavailability", "setting": "[5]", "value": 65.1, "unit": "%"}, {"measurement": "inhibition at 1 µM", "setting": "[6]", "value": -1, "unit": "%"}, {"measurement": "solubility", "setting": "[7]", "value": 3, "unit": "µg/mL"}, {"measurement": "Activity", "setting": "[8]", "value": "Non-Toxic"}, {"measurement": "Activity", "setting": "[9]", "value": "Dose-dependent effect"}, {"measurement": "CLhep predicted at 1 µM", "setting": "[10]", "value": 7.6, "unit": "mL/min/kg"}, {"measurement": "Activity", "setting": "[11]", "value": "Dose-dependent effect"}, {"measurement": "solubility", "setting": "[12]", "value": 35900, "unit": "µg/mL"}, {"measurement": "Activity", "setting": "[13]", "value": "Non-Toxic"}, {"measurement": "inhibition in vivo at 0.125 mg/kg", "setting": "[14]", "value": 50, "unit": "%"}, {"measurement": "inhibition at 1 µM", "setting": "[15]", "value": 5, "unit": "%"}, {"measurement": "IC50", "setting": "[16]", "value": "> 5", "unit": "µM"}, {"measurement": "Time", "setting": "[17]", "value": 6, "unit": "h"}, {"measurement": "inhibition in vivo at 1 mg/kg", "setting": "[18]", "value": 71, "unit": "%"}, {"measurement": "clearance", "setting": "[19]", "value": 27.4, "unit": "mL/min/kg"}, {"measurement": "Vd", "setting": "[20]", "value": 5.42, "unit": "L/kg"}, {"measurement": "Activity", "setting": "[21]", "value": "Active"}, {"measurement": "Activity", "setting": "[22]", "value": "Non-Toxic"}, {"measurement": "Activity", "setting": "[23]", "value": "Non-Toxic"}, {"measurement": "Activity", "setting": "[24]", "value": "Non-Toxic"}, {"measurement": "Activity", "setting": "[25]", "value": "Non-Toxic"}, {"measurement": "Activity", "setting": "[26]", "value": "Active"}, {"measurement": "Activity", "setting": "[27]", "value": "Non-Toxic"}, {"measurement": "inhibition at 1 µM", "setting": "[28]", "value": 0.6, "unit": "%"}, {"measurement": "inhibition in vivo at 2 mg/kg", "setting": "[29]", "value": 96, "unit": "%"}]}]}
